Experimental data taken from patent US20050064382A1, “Method of prevention of lysosomal leakage in eukaryotic cells by using 6-methyluracil based water-soluble compounds and method of producing thereof” (priority 2002, published 2005).

Experiments:
Water solubility = format: physicochemical
Drosophila [1] = assay: Sterol-deficit diet and both drugs: frequency of X-chromosomes loss in late oocytes of Drosophila; format: in vivo; details: yeast of wild type
From the text: The classic genetic model was used, based on the well-known method: the frequency of mutations in Drosophila (fruit flies) caused by X-rays. It is known that the frequency of these mutations can be increased by adding to the food of females certain membrane destabilizers (we used Polyene Antibiotics—Amphotericin B), or by the use of a special diet. Like all insects, Drosophila obtain all of their sterols from food (yeast for Drosophila). A special diet rich with Nistatin (Polyene antibiotic) resistant yeast was used.
The frequency of the loss of x-chromosomes (males excluded) was measured after crossing with the […]. Females were given a dose of 1000 Roentgens 5 days before being given the food additive or “special diet”.
Influence of sterol-deficit diet and both drugs on the frequency of X-chromosomes loss in late oocytes of Drosophila. Groups 1-4 received yeast of wild type, groups 5,6 (diet) received nistatin resistant yeasts meaning groups 5,6 had abnormal sterols in membranes: […]

Drosophila [2] = assay: X-ray caused loss of X-chromosomes in late oocyte of Drosophila; format: in vivo; details: 1000 Roentgens

solubility (Water solubility)	SMILES	Frequency of X-Chromosomes loss, % (Drosophila [1])	Frequency of the loss of X-chromosomes, % (Drosophila [2]; 1.0 mkg/female)	Frequency of the loss of X-chromosomes, % (Drosophila [2]; 5.0 mkg/female)	Frequency of the loss of X-chromosomes, % (Drosophila [2]; 10.0 mkg/female)	Frequency of the loss of X-chromosomes, % (Drosophila [2]; 15.0 mkg/female)	Frequency of the loss of X-chromosomes, % (Drosophila [2]; 20.0 mkg/female)
< 3 mg/mL	O=C1CCC(N2C(=O)c3ccccc3C2=O)C(=O)N1 (stereo not shown) [thalidomides, thalidomide]	–	–	–	–	–	–
–	C[C@@H]1[C@H](O)[C@@H](C)/C=C/C=C/C=C/C=C/C=C/C=C/C=C/[C@H](O[C@@H]2O[C@H](C)[C@@H](O)[C@H](N)[C@@H]2O)C[C@@H]2O[C@](O)(C[C@@H](O)C[C@@H](O)[C@H](O)CC[C@@H](O)C[C@@H](O)CC(=O)O[C@H]1C)C[C@H](O)[C@H]2C(=O)O [Amphotericin B, reference compound]	4.3 ± 0.29%	1.4 ± 0.19%	2.1 ± 0.21%	3.6 ± 0.35%	4.1 ± 0.41%	4.2 ± 0.61%
